Results from patent US9120744B2, “Plasminogen activator inhibitor-1 inhibitors and methods of use thereof to modulate lipid metabolism” (THE REGENTS OF THE UNIVERSITY OF MICHIGAN, priority 2007, dated 2015).
Structures can show the parent of a compound that is named as a salt. Where two headings read alike, the source gives them in different places.

Target: recombinant active human PAI-1 (Homo sapiens (Human), UniProt P05121)
Experiment: β-trypsin screening assay for PAI-1 inhibitors;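 also: fluorogenic readout with PAI-1 and β-trypsin at 10:1 molar ratio, untreated PAI-1 wells set as 100% PAI-1 activity and β-trypsin alone as 0%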
Format: biochemical
[1] = 10 μM compound, hit = more than 3 standard deviations above control

Sequence of recombinant active human PAI-1 (P05121 24-402): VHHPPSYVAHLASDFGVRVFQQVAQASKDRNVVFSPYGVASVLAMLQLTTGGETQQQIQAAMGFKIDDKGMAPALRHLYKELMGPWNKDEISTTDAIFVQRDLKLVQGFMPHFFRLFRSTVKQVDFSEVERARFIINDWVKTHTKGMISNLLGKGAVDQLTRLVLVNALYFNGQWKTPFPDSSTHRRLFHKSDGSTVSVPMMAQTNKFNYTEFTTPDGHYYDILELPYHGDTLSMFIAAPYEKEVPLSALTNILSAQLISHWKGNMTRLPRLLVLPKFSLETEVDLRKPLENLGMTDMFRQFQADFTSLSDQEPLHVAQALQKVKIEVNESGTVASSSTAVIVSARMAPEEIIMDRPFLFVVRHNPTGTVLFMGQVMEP

Row | Compound | screening hit: restoration of β-trypsin activity [1] | screening hit: restoration of β-trypsin activity
1 | CNCC[C@H](Oc1cccc2ccccc12)c1cccs1 [DULOXETINE HCl] | – | demonstrate PAI-1 inhibitor activity
2 | O=C1Nc2ccc(Cl)cc2[C@@](C#CC2CC2)(C(F)(F)F)O1 [EFAVIRENZ] | demonstrate PAI-1 inhibitor activity | –
3 | O=C(Oc1cc(O)cc2c1C[C@@H](OC(=O)c1cc(O)c(O)c(O)c1)[C@@H](c1cc(O)c(O)c(O)c1)O2)c1cc(O)c(O)c(O)c1 [EPIGALLOCATECHIN 3,5-DIGALLATE] | demonstrate PAI-1 inhibitor activity | –
4 | Oc1cc(O)c2c(c1)O[C@H](c1cc(O)c(O)c(O)c1)[C@H](O)C2 [EPIGALLOCATECHIN] | demonstrate PAI-1 inhibitor activity | –
5 | NC(=O)OCC(COC(N)=O)c1ccccc1 [Felbamate] | demonstrate PAI-1 inhibitor activity | –
6 | CCOC(=O)c1ccc(OC(=O)CCCCCN=C(N)N)cc1.CS(=O)(=O)O [GABEXATE MESYLATE] | demonstrate PAI-1 inhibitor activity | –
7 | Cl.N[C@H]1C(O)O[C@H](CO)[C@@H](O)[C@@H]1O (stereo partly drawn) [GLUCOSAMINE HYDROCHLORIDE] | demonstrate PAI-1 inhibitor activity | –
8 | CN1[C@H]2CCC[C@H]1CC(NC(=O)c1nn(C)c3ccccc13)C2.Cl (stereo partly drawn) [GRANISETRON HCl] | demonstrate PAI-1 inhibitor activity | –
9 | Oc1cc2c(cc1O)C1c3ccc(O)c(O)c3OCC1(O)C2 (stereo not drawn) [HAEMATOXYLIN] | demonstrate PAI-1 inhibitor activity | –
10 | CC1=NCCc2c1[nH]c1cc(O)ccc21.Cl [HARMALOL HYDROCHLORIDE] | demonstrate PAI-1 inhibitor activity | –
11 | C=C[C@@](C)(O)CC[C@H]1C(=C)C[C@H](O)[C@H]2C(C)(C)CCC[C@]12C [LARIXOL] | demonstrate PAI-1 inhibitor activity | –
12 | CC(C)(C)NC[C@H](O)c1ccc(O)c(CO)c1 [LEVALBUTEROL HYDROCHLORIDE] | demonstrate PAI-1 inhibitor activity | –
13 | CC(C(=O)[O-])c1ccc(CC2CCCC2=O)cc1.[Na+] (stereo not drawn) [LOXOPROFEN SODIUM] | demonstrate PAI-1 inhibitor activity | –
14 | CC12CC3CC(C)(C1)CC(N)(C3)C2 [MEMANTINE HYDROCHLORIDE] | demonstrate PAI-1 inhibitor activity | –
15 | NC[C@H](O)c1ccc(O)c(O)c1 [NOREPINEPHRINE] | demonstrate PAI-1 inhibitor activity | –
16 | CN(C)C(=S)SSC(=S)N(C)C [NSC 1771] | demonstrate PAI-1 inhibitor activity | –
17 | Clc1ccc(CONC(Cn2ccnc2)c2ccc(Cl)cc2Cl)c(Cl)c1.O=[N+]([O-])O (stereo not drawn) [OXICONAZOLE NITRATE] | demonstrate PAI-1 inhibitor activity | –
18 | NCCc1cc(O)c(O)cc1O [OXIDOPAMINE HYDROCHLORIDE] | demonstrate PAI-1 inhibitor activity | –
19 | N=C1C=CC(=C(c2ccc(N)cc2)c2ccc(N)cc2)C=C1 [PARAROSANILINE PAMOATE] | demonstrate PAI-1 inhibitor activity | –
20 | CCOP(=S)(OCC)SCSCC [PHORATE] | demonstrate PAI-1 inhibitor activity | –
21 | CCN(CC)CCNC(=O)c1ccc(N)cc1 [PROCAINAMIDE HYDROCHLORIDE] | demonstrate PAI-1 inhibitor activity | –
22 | C=C[C@H]1CN2CC[C@H]1C[C@H]2[C@H](OC(=O)OCC)c1ccnc2ccc(OC)cc12 [QUININE ETHYL CARBONATE] | demonstrate PAI-1 inhibitor activity | –
23 | COc1ccc2[nH]cc(C3=CCNCC3)c2c1 [RU 24969] | demonstrate PAI-1 inhibitor activity | –
24 | CC12CCC3C(CCC4(O)CC(O)CCC34/C=N/NC(N)=O)C1(O)CCC2C1=CC(=O)OC1 (stereo not drawn) [STROPHANTHIDIN SEMICARBAZIDE] | demonstrate PAI-1 inhibitor activity | –
25 | O=c1c(O)cccc2c([C@H]3Oc4cc(O)cc(O)c4C[C@H]3O)cc(O)c(O)c12 [THEAFLAVANIN] | demonstrate PAI-1 inhibitor activity | –
26 | CN1[C@@H]2CC[C@H]1C[C@@H](OC(=O)c1c[nH]c3ccccc13)C2.Cl [TROPISETRON HCl] | – | demonstrate PAI-1 inhibitor activity
27 | CC(CCC(=O)O)[C@H]1CCC2C3CCC4CCCC[C@]4(C)C3CC[C@@]21C (stereo partly drawn) [URSOCHOLANIC ACID] | demonstrate PAI-1 inhibitor activity | –
28 | CC[C@@]1(O)C[C@@H]2CN(CCc3c([nH]c4ccccc34)[C@](C(=O)OC)(c3cc4c(cc3OC)N(C)[C@@H]3[C@]45CCN4CC=C[C@@](CC)(C(O)[C@]3(O)C(N)=O)[C@H]45)C2)C1.O=S(=O)(O)O (stereo partly drawn) [VINDESINE SULFATE] | demonstrate PAI-1 inhibitor activity | –
29 | Cc1cc(C(C)(C)C)cc(C)c1CC1=NCCN1 [XYLOMETAZOLINE HYDROCHLORIDE] | demonstrate PAI-1 inhibitor activity | –
30 | CHLORAMPHENICOL HEMISUCCINATE | demonstrate PAI-1 inhibitor activity | –

Second part, led by results:

Row | screening hit: restoration of β-trypsin activity [1] | Compound | screening hit: restoration of β-trypsin activity
31 | demonstrate PAI-1 inhibitor activity | O=C(O[C@@H]1Cc2c(O)cc(O)cc2O[C@@H]1c1ccc(O)c(O)c1)c1cc(O)c(O)c(O)c1 [EPICATECHIN MONOGALLATE] | –
32 | demonstrate PAI-1 inhibitor activity | O=C1[C@H](CC[C@H](O)c2ccc(F)cc2)[C@@H](c2ccc(O)cc2)N1c1ccc(F)cc1 [EZETIMIBE] | –
33 | demonstrate PAI-1 inhibitor activity | CS(=O)(=O)O.Oc1ccc(C2CNCCc3c2cc(O)c(O)c3Cl)cc1 (stereo not drawn) [FENOLDOPAM MESYLATE] | –
34 | demonstrate PAI-1 inhibitor activity | CC(C)=CCCC1(C)C=Cc2c(O)c3c(c(CC=C(C)C)c2O1)OC12C(=CCCC1C(C)(C)O[C@@]2(C/C=C(\C)C(=O)O)C(=O)O)C3=O (stereo partly drawn) [GARCINOLIC ACID] | –
35 | demonstrate PAI-1 inhibitor activity | O=C1C=C2CC3(O)COc4c(ccc(O)c4O)C3=C2C=C1O (stereo not drawn) [HEMATEIN] | –
36 | demonstrate PAI-1 inhibitor activity | O=c1cc(-c2cc(O)c(O)c(O)c2)oc2cc(O)cc(O)c12 [HIERACIN] | –
37 | demonstrate PAI-1 inhibitor activity | COc1cc(-c2coc3cc(OCc4ccccc4)c(OC)c(O)c3c2=O)cc(OCc2ccccc2)c1OC [IRIGENIN, DIBENZYL ETHER] | –
38 | demonstrate PAI-1 inhibitor activity | O=c1c(-c2cc(O)c(O)c(O)c2)coc2cc(O)c(O)c(O)c12 [IRIGENOL] | –
39 | demonstrate PAI-1 inhibitor activity | CC(=O)Oc1cc(-c2coc3cc(OC(C)=O)c(OC(C)=O)c(OC(C)=O)c3c2=O)cc(OC(C)=O)c1OC(C)=O [IRIGINOL HEXAACEATATE] | –
40 | demonstrate PAI-1 inhibitor activity | COc1ccc(-c2coc3cc(O)ccc3c2=O)c(O)c1O [KOPARIN] | –
41 | demonstrate PAI-1 inhibitor activity | CCOC(=O)C1=C(C)N=C(C)/C(=C(/O)OCC)C1c1ccccc1/C=C/C(=O)OC(C)(C)C (stereo not drawn) [LACIDIPINE] | –
42 | demonstrate PAI-1 inhibitor activity | CCOC(=O)N1CCC(=C2c3ccc(Cl)cc3CCc3cccnc32)CC1 [LORATADINE] | –
43 | demonstrate PAI-1 inhibitor activity | C=C1c2cccc(O)c2C(=O)C2=C(O)[C@]3(O)C(=O)C(C(N)=O)=C(O)[C@@H](N(C)C)[C@@H]3[C@@H](O)[C@H]12 [METHACYCLINE HYDROCHLORIDE] | –
44 | demonstrate PAI-1 inhibitor activity | Cc1cc(O)c(C=O)c2c1C(=O)Oc1c(C)c(O)c3c(c1O2)C(O)OC3=O (stereo not drawn) [NORSTICTIC ACID] | –
45 | demonstrate PAI-1 inhibitor activity | CCc1oc2ccccc2c1C(=O)c1cc(Br)c(O)c(Br)c1 [NSC 85433] | –
46 | demonstrate PAI-1 inhibitor activity | O=c1c(O)c(-c2ccc(O)c(O)c2)oc2cc(O)ccc12 [NSC 407010] | –
47 | demonstrate PAI-1 inhibitor activity | NC(=O)N1c2ccccc2CC(=O)c2ccccc21 [OXCARBAZEPINE] | –
48 | demonstrate PAI-1 inhibitor activity | C[C@H]1COc2c(C3(N)CC3)c(F)cc3c(=O)c(C(=O)O)cn1c23 [PAZUFLOXACIN] | –
49 | demonstrate PAI-1 inhibitor activity | CN1CCN(CC(=O)N2c3ccccc3C(=O)Nc3cccnc32)CC1 [PIRENZEPINE HYDROCHLORIDE] | –
50 | demonstrate PAI-1 inhibitor activity | O=c1c(O)cccc2cc(O)c(O)c(O)c12 [PURPUROGALLIN] | –
51 | demonstrate PAI-1 inhibitor activity | CCN(CC)CCCC(C)Nc1c2ccc(Cl)cc2nc2ccc(OC)cc12 (stereo not drawn) [QUINACRINE HYDROCHLORIDE] | –
52 | demonstrate PAI-1 inhibitor activity | O=C1c2ccc(O)c(O)c2C(=O)c2c(O)ccc(O)c21 [QUINALIZARIN, quinalizarin] | –
53 | demonstrate PAI-1 inhibitor activity | O=C(O)c1cc(O)c2c(c1)[C@H]([C@H]1c3cc(C(=O)O)cc(O)c3C(=O)c3c(O[C@@H]4O[C@H](CO)[C@@H](O)[C@H](O)[C@H]4O)cccc31)c1cccc(O[C@@H]3O[C@H](CO)[C@@H](O)[C@H](O)[C@H]3O)c1C2=O [SENNOSIDE A] | –
54 | demonstrate PAI-1 inhibitor activity | O=C(O[C@H]1Cc2c(O)cc(O)cc2O[C@H]1c1cc(O)c(=O)c2c(O)c(O)cc([C@@H]3Oc4cc(O)cc(O)c4C[C@@H]3O)c2c1)c1cc(O)c(O)c(O)c1 [THEAFLAVIN MONOGALLATES] | –
55 | demonstrate PAI-1 inhibitor activity | O=c1c(O)cc([C@H]2Oc3cc(O)cc(O)c3C[C@H]2O)cc2c([C@H]3Oc4cc(O)cc(O)c4C[C@H]3O)cc(O)c(O)c12 [THEAFLAVIN] | –
56 | demonstrate PAI-1 inhibitor activity | Cc1onc(-c2ccccc2)c1-c1ccc(S(N)(=O)=O)cc1 [VALDECOXIB] | –
57 | demonstrate PAI-1 inhibitor activity | COc1cc(C(=O)NS(=O)(=O)c2ccccc2C)ccc1Cc1cn(C)c2ccc(NC(=O)OC3CCCC3)cc12 [ZAFIRLUKAST] | –
